Test results published in ChEMBL document CHEMBL5233271, “Discovering the Mechanisms of Wikstroelide E as a Potential HIV-Latency-Reversing Agent by Transcriptome Profiling” (J Nat Prod, 2021).
Calls of active or inactive are those of the source. The calls are words filed in the database; no cut-off is given here.

Legend:
J-Lat Tat-GFP Clone A2 [1] = assay: Upregulation of HSP90B1 gene expression in human J-Lat Tat-GFP Clone A2 cells at 10 nM measured after 6 hrs by transcriptome analysis; type: functional, cell-based
J-Lat Tat-GFP Clone A2 [2] = assay: Downregulation of ADI1 gene expression in human J-Lat Tat-GFP Clone A2 cells at 10 nM measured after 6 hrs by transcriptome analysis; type: functional, cell-based
J-Lat Tat-GFP Clone A2 [3] = assay: Downregulation of ARID4B gene expression in human J-Lat Tat-GFP Clone A2 cells at 10 nM measured after 6 hrs by transcriptome analysis; type: functional, cell-based
J-Lat Tat-GFP Clone A2 [4] = assay: Downregulation of LRSAM1 gene expression in human J-Lat Tat-GFP Clone A2 cells at 10 nM measured after 6 hrs by transcriptome analysis; type: functional, cell-based
[5] = test system: Human immunodeficiency virus; assay: Reactivation of latent HIV in human J-Lat Tat-GFP Clone A2 cells at 10 nM by fluorescence based analysis; type: functional, organism-based; conditions: time 6-36 hrs, TDE = time-dependent effect
J-Lat Tat-GFP Clone A2 [6] = assay: Downregulation of FLNB gene expression in human J-Lat Tat-GFP Clone A2 cells at 10 nM measured after 6 hrs by transcriptome analysis; type: functional, cell-based
J-Lat Tat-GFP Clone A2 [7] = assay: Activation of NFkappaB signalling pathway in human J-Lat Tat-GFP Clone A2 cells assessed as increase in translocation of p65 from cytoplasm to nucleus at 40 nM measured after 15 to 60 mins by Western blot analysis; type: cell-based; conditions: filed as activator, time 15-60 min
[8] = test system: Human immunodeficiency virus; assay: HIV-latency reversing activity in human NH2 cells at 10 nM pretreated with PDTC for 1 hr followed by compound addition and measured after 12 hrs by luciferase based assay; type: functional, organism-based
NH2 [9] = assay: Activation of NFkappaB signalling pathway in human NH2 cells assessed as increase in translocation of p65 from cytoplasm to nucleus at 40 nM measured after 15 to 60 mins by Western blot analysis; type: cell-based; conditions: filed as activator, time 15-60 min
[10] = test system: Human immunodeficiency virus; assay: Reactivation of latent HIV in human J-Lat Tat-GFP Clone A2 cells assessed as increase in GFP expression at 0 to 20 nM measured after 24 hrs by fluorescence microscopy; type: functional, organism-based; conditions: dose 0-20 nM
[11] = test system: Human immunodeficiency virus; assay: Reactivation of latent HIV in human J-Lat 2D10 cells measured after 24 hrs by fluorescence based analysis; type: functional, organism-based; conditions: dose 0.5-40 nM
J-Lat Tat-GFP Clone A2 [12] = assay: Downregulation of PRKCQ gene expression in human J-Lat Tat-GFP Clone A2 cells at 10 nM measured after 6 hrs by transcriptome analysis; type: functional, cell-based
[13] = test system: Human immunodeficiency virus; assay: HIV-latency reversing activity in human NH2 cells at 10 nM pretreated with BAY11-7082 for 1 hr followed by compound addition and measured after 12 hrs by luciferase based assay; type: functional, organism-based
NH2 [14] = assay: Activation of NFkappaB signalling pathway in human NH2 cells assessed as increase in IkappaBalpha phosphorylation at 40 nM by Western blot analysis; type: cell-based; conditions: filed as activator, time 5-120 min, TDE = time-dependent effect
[15] = test system: Human immunodeficiency virus; assay: Reactivation of latent HIV in human NH2 cells assessed as fold change measured after 24 hrs by luciferase based analysis relative to -prostratin; type: functional
[16] = test system: Human immunodeficiency virus; assay: HIV-latency reversing activity in human NH2 cells at 10 nM measured after 24 hrs by luciferase based assay; type: functional, organism-based
J-Lat Tat-GFP Clone A2 [17] = assay: Upregulation of CHCHD2 gene expression in human J-Lat Tat-GFP Clone A2 cells at 10 nM measured after 6 hrs by transcriptome analysis; type: functional, cell-based
[18] = test system: Human immunodeficiency virus; assay: HIV-latency reversing activity in human J-Lat Tat-GFP Clone A2 cells at 10 nM measured after 24 hrs by fluorescence based analysis; type: functional, organism-based
NH2 [19] = assay: Activation of NFkappaB signalling pathway in human NH2 cells assessed as increase in IkappaBalpha phosphorylation measured after 1 hr by Western blot analysis; type: cell-based; conditions: filed as activator, dose 0-80 nM
J-Lat Tat-GFP Clone A2 [20] = assay: Activation of NFkappaB signalling pathway in human J-Lat Tat-GFP Clone A2 cells assessed as increase in IkappaBalpha phosphorylation measured after 1 hr by Western blot analysis; type: cell-based; conditions: filed as activator, dose 0-80 nM
[21] = Cytotoxicity against human NH1 cells at 1 uM incubated for 72 hrs; type: toxicity, cell-based; conditions: nh1, 72 h
J-Lat Tat-GFP Clone A2 [22] = assay: Downregulation of IKBKG gene expression in human J-Lat Tat-GFP Clone A2 cells at 10 nM measured after 6 hrs by transcriptome analysis; type: functional, cell-based
J-Lat Tat-GFP Clone A2 [23] = assay: Activation of NFkappaB signalling pathway in human J-Lat Tat-GFP Clone A2 cells assessed as induction of IkappaBalpha degradation measured after 1 hr by Western blot analysis; type: cell-based; conditions: filed as activator, dose 0-80 nM
J-Lat Tat-GFP Clone A2 [24] = assay: Downregulation of CHEK1 gene expression in human J-Lat Tat-GFP Clone A2 cells at 10 nM measured after 6 hrs by transcriptome analysis; type: functional, cell-based
[25] = test system: Human immunodeficiency virus; assay: Reactivation of latent HIV in human NH2 cells at 10 nM by luciferase based analysis; type: functional, organism-based; conditions: time 6-36 hrs, TDE = time-dependent effect
[26] = test system: Human immunodeficiency virus; assay: Reactivation of latent HIV in human NH1 cells measured after 24 hrs by luciferase based analysis; type: functional, organism-based; conditions: dose 0.5-10 nM

Q: What does the source list for `C=C(C)[C@]12C[C@@H](C)[C@@]34O[C@]5(CCCCCCC[C@H](C)[C@H]6[C@H](C)C(=O)[C@@](O)([C@H](O)[C@@]7(CO)O[C@H]7[C@H]3[C@H]1O5)[C@@H]64)O2`?
A: Activity (J-Lat Tat-GFP Clone A2 [1]): Active; Activity (J-Lat Tat-GFP Clone A2 [2]): Active; Activity (J-Lat Tat-GFP Clone A2 [3]): Active; Activity (J-Lat Tat-GFP Clone A2 [4]): Active; Activity [5]: Tde; Activity (J-Lat Tat-GFP Clone A2 [6]): Active; Activity (J-Lat Tat-GFP Clone A2 [7]): Active; Activity [8]: inactive; Activity (NH2 [9]): Active; Activity [10]: Active; Activity [11]: Dose-Dependent Effect; Activity (J-Lat Tat-GFP Clone A2 [12]): Active; Activity [13]: inactive; Activity (NH2 [14]): Tde; fold change (FC) [15]: 2500; Activity [16]: Active; Activity (J-Lat Tat-GFP Clone A2 [17]): Active; Activity [18]: Active; Activity (NH2 [19]): Dose-Dependent Effect; Activity (J-Lat Tat-GFP Clone A2 [20]): Dose-Dependent Effect; Activity [21]: Non-Toxic; Activity (J-Lat Tat-GFP Clone A2 [22]): Active; Activity (J-Lat Tat-GFP Clone A2 [23]): Dose-Dependent Effect; Activity (J-Lat Tat-GFP Clone A2 [24]): Active; Activity [25]: Tde; Activity [26]: Dose-Dependent Effect
